Laboratory results as given in patent US20040092528A1, “Agent for modulating excitatory synaptic transmission comprising a compound having alpha7 nicotinic acetylcholine receptor activation property” (priority 2000, published 2004).
Where two headings read alike, the source gives them in different places.

Experiments:
[1] = tested on: CA1 neurones in rat hippocampal slices; assay: EPSP recording (amplitude, slope, quantal content) in CA1 neurones in rat hippocampal slices; assay type: cell-based; conditions: for increase in EPSP slope: dose-response series
guinea-pig hippocampus = conditions: cited from earlier work
rats = rats in vivo; cited from earlier work
CA1 neurones [2] = assay: Excitatory post-synaptic current (EPSC) in CA1 neurones voltage clamped at −70 mV; assay type: cell-based, rat
CA1 neurones [3] = assay: GABAergic inhibitory post-synaptic current (IPSC) in voltage clamped CA1 neurones; assay type: cell-based, rat
rat hippocampus = conditions: cited from earlier work
CA1 neurones [4] = assay: Membrane potential and input resistance of CA1 neurones; assay type: cell-based, rat; conditions: FK960 94 nM and 100 nM, n=11, average exposure 30 mins
cholinergic receptors = assay: Displacement of radiolabelled ligands with high affinity to cholinergic receptors; assay type: binding; conditions: a number of assays
[5] = target: α7 nicotinic ACh receptor (Rattus norvegicus, UniProt Q05941); assay: Effect of FK960 on EPSP amplitude in the presence of α7 nicotinic ACh receptor antagonists; assay type: cell-based
α7 nicotinic ACh receptor, sequence (Q05941 23-502): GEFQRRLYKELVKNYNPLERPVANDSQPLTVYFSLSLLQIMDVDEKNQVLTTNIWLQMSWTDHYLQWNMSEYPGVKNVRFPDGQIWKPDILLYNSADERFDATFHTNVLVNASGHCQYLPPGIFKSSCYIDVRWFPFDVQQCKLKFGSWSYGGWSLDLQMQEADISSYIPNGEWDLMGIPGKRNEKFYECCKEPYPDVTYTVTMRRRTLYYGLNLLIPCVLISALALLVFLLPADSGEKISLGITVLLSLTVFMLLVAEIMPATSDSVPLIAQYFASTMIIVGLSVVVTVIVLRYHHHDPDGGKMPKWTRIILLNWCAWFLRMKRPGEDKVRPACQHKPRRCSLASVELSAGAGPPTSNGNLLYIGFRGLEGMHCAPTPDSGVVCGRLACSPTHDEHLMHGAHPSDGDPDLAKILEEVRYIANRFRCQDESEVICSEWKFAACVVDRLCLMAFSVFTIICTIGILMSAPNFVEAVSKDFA

[6] = one CA1 neurone (FIG. 1), 100 nM FK960

## CC(=O)N1CCN(NC(=O)c2ccc(F)cc2)CC1 [FK960, N-(4-acetyl-1-piperazinyl)-p-fluorobenzamide monohydrate]
[1]; 0, 50, 100, 200 nM FK960, EPSP slope
  dose-response relationship (shape): bell-shaped
[1]; 100 nM FK960, 21 min, n=9 neurones
  increase in mean EPSP amplitude: 65%
[1]; 100 nM FK960, 21 min, n=9 neurones, 2.3 mV before
  mean EPSP amplitude: 3.8 mV
[1]; 100 nM FK960, 21 minutes, pooled neurones
  mean increase in 1/CV^2 (quantal content): 53%
[1]; 100 nM FK960, 21 minutes, 6.4 before
  1/CV^2 (quantal content), mean: 9.8
[1]; 100 nM FK960, after 21 mins, n=9
  increase in mean EPSP slope: 51%
[1]; 100 nM FK960, after 21 mins, n=9, 357.8 mV/s before
  mean EPSP slope: 540.5 mV/s
[1]; 4 neurones, 20-30 min after exposure to 100 nM FK960, 0.65 before
  frequency of spontaneous EPSPs: 0.54 spontaneous EPSP/sec
[1]; after 21 minutes exposure to 100 nM FK960, 7 neurones, 0.39 mV before
  mean quantum size: 0.42 mV
[1]; after 27 mins in FK960, n=7
  increase in EPSP amplitude: 64%
[1]; after 27 mins in FK960, n=7, 2.2 mV before
  EPSP amplitude: 3.6 mV
[1]; 50 nM FK960
  increase in EPSP slope: smaller and not significant
[1]; 100 nM FK960, n=5, after 21 mins, control aCSF 11%
  increase in EPSP slope: 55%
[1]; 200 nM FK960
  increase in EPSP slope: smaller and not significant
[1]; [6]
  increase in mean EPSP amplitude: 123%
  rise in quantal content: 109%
[1]; one CA1 neurone (FIG. 1), 100 nM FK960, n=287 EPSPs, 2.6 mV in control aCSF
  mean EPSP amplitude: 5.8 mV
[1]; one CA1 neurone (FIG. 1), 21 min 40 sec after 100 nM FK960
  increase in slope of the rising phase of the averaged EPSP: 127%
[1]; one CA1 neurone (FIG. 1), 21 min 40 sec after 100 nM FK960, 326.7 mV/s before
  slope of the rising phase of the averaged EPSP: 742.8 mV/s
[1]; one CA1 neurone (FIG. 1), after 20 mins in 100 nM FK960, 6.4 before
  quantal content (1/CV^2): 13.4
[1]; one CA1 neurone (FIG. 1), after 21 min in 100 nM FK960, 2.6 mV (n=50) before
  mean EPSP amplitude: 5.5 mV
guinea-pig hippocampus; guinea pig hippocampus, 100 nM FK960
  effect on magnitude of long-term potentiation: significantly increased the magnitude of long-term potentiation
guinea-pig hippocampus; guinea-pig hippocampus in vitro
  effect on magnitude of long-term potentiation: increase the magnitude of long-term potentiation
rats
  effect on scopolamine-induced cognitive deficits: reverse scopolamine-induced cognitive deficits
CA1 neurones [2]; 4 experiments, 20-22 mins exposure to 100 nM FK960, 22.2 ms before
  EPSC decay time constant τEPSC: 28.4 ms
CA1 neurones [2]; 4 experiments, 20-22 mins exposure to 100 nM FK960, 98.3 pA before
  EPSC amplitude: 158.3 pA
CA1 neurones [2]; one neurone (FIG. 5C), FK960, 103 pA before
  EPSC amplitude: 175 pA
CA1 neurones [3]; 100 nM FK960
  effect on the IPSC: no significant effect
CA1 neurones [3]; 3 experiments, FK960, 48 pA in control aCSF
  Mean IPSC amplitude: 46 pA
CA1 neurones [3]; one CA1 neurone (FIG. 4), 21 minutes in FK960, 39 pA in control aCSF
  IPSC peak amplitude: 38 pA
Rat hippocampus
  effect on amplitude of the un-potentiated population spike: increases the amplitude of the un-potentiated population spike
CA1 neurones [4]; 175.3 MΩ in control aCSF
  input resistance: 164.2 MΩ
CA1 neurones [4]; −60.3 mV in control aCSF
  resting membrane potential: −59.4 mV
Cholinergic receptors
  displacement of radiolabelled ligands with high affinity to cholinergic receptors: failed to displace
[5]
  increase in mean EPSP amplitude: 11%
  mean EPSP amplitude: 2.0 mV
[5]; 21 minutes exposure to 100 nM FK960 in 100 nM MLA, 5 CA1 neurones, unchanged
  mean EPSP amplitude: 2.6 mV
[5]; FK960 in 10 nM MLA, 21 minutes, n=3, from 3.1 mV
  rise in EPSP amplitude: 10%

## O=C(c1ccc2nccnc2c1)N1CCCCC1 [FR212436, 1-(quinoxalin-6-ylcarbonyl)piperidine]
CA1 neurones [2]; 200 μM FR212436 for 20 min, n=3, 15.0 ms before
  EPSC decay time constant τEPSC: 22.4 ms
CA1 neurones [2]; 200 μM FR212436 for 20 min, n=3, 84 pA before
  EPSC amplitude: 181.3 pA
CA1 neurones [2]; 2 mM FR212436 for 5-10 min, n=3, 21.5 ms before
  EPSC decay time constant τEPSC: 46.7 ms
CA1 neurones [2]; 2 mM FR212436 for 5-10 min, n=3, 73.7 pA before
  EPSC amplitude: 239.7 pA
CA1 neurones [2]; one neurone (FIG. 5A), FR212436 200 μM, 42 pA before
  EPSC amplitude: 95 pA
CA1 neurones [2]; one neurone (FIG. 5B), FR212436 2 mM, 87 pA before
  EPSC amplitude: 247 pA

## α-bungarotoxin [reference compound]
[5]
  effect of antagonist on the action of FK960 on the EPSP: attenuated
  mean EPSP amplitude: 1.6 mV
